Our source for the IC50 values is ChEMBL document CHEMBL4610097, “Daphnane Diterpenoids from Daphne genkwa Inhibit PI3K/Akt/mTOR Signaling and Induce Cell Cycle Arrest and Apoptosis in Human Colon Cancer Cells” (J Nat Prod, 2020).

The IC50 is the concentration needed to halve the response being measured. High values mean weaker potency in that assay, low ones greater potency in that assay.

Common to all, as to type: functional, cell-based
The test system of assay [1] is RKO. Briefly: Cytotoxicity against human RKO cells after 24 hrs by MTT assay. For orientation: Tetrazolium assays rely on reduction of a dye to a coloured formazan, in cell work by metabolically active cells.
The subject of assay [2] is SW-620. Briefly: Cytotoxicity against human SW620 cells after 24 hrs by MTT assay. The conditions noted are these: SW-620, 24 h.
The subject of assay [3] is LoVo. Briefly: Cytotoxicity against human LoVo cells after 24 hrs by MTT assay.

For the compound `O=c1[nH]cc(F)c(=O)[nH]1` [FLUOROURACIL], the IC50 in assay [1] is > 10 µM; in assay [2], 10 µM.

As for `C=C(C)[C@@]1(O)[C@H](O)[C@@H]2[C@@H]3O[C@]3(CO)[C@@H](O)[C@]3(O)C(=O)C(C)=C[C@H]3[C@@]2(O)[C@H](C)[C@H]1OC(C)=O`, the IC50 in assay [1], in assay [2] and in assay [3] was > 10 µM throughout.

In the case of `C=C(C)[C@@]1(O)[C@H](OC(=O)/C=C/C=C/C=C/CCC)[C@@H]2[C@@H]3O[C@]3(CO)[C@@H](O)[C@]3(O)C(=O)C(C)=C[C@H]3[C@@]2(O)[C@H](C)[C@H]1OC(C)=O`, the IC50 in assay [1], in assay [2] and in assay [3] was > 10 µM in each case.

With `C=C(C)[C@@]12O[C@@]3(/C=C/C=C/CCCCC)O[C@@H]1[C@@H]1[C@@H]4O[C@]4(CO)[C@@H](O)[C@]4(O)C(=O)C(C)=C[C@H]4[C@@]1(O3)[C@H](C)[C@H]2OC(=O)CCC`, the IC50 in assay [1] was found to be 9.7 µM; in assay [2] it was 5.2 µM.

Regarding `C=C(C)[C@@]12O[C@@]3(/C=C/C=C/CCCCC)O[C@@H]1[C@@H]1[C@@H]4O[C@]4(CO)[C@@H](O)[C@]4(O)C(=O)C(C)=C[C@H]4[C@@]1(O3)[C@H](C)[C@H]2OC(C)=O` [YUANHUADINE], the IC50 in assay [1], in assay [2] and in assay [3] was > 10 µM in each case.

For `C=C(C)[C@@]12O[C@@]3(c4ccccc4)O[C@@H]1[C@@H]1[C@@H]4O[C@]4(CO)[C@@H](O)[C@]4(O)C(=O)C(C)=C[C@H]4[C@@]1(O3)[C@H](C)[C@H]2OC(C)=O`, the 50% inhibitory concentration (IC50) in assay [1], in assay [2] and in assay [3] was > 10 µM in each case.

Take `C=C(C)[C@@]12O[C@@]3(c4ccccc4)O[C@@H]1[C@@H]1[C@@H]4O[C@]4(CO)[C@@H](O)[C@]4(O)C(=O)C(C)=C[C@H]4[C@@]1(O3)[C@H](C)[C@H]2OC(=O)c1ccccc1`: the IC50 in assay [1], in assay [2] and in assay [3] was > 10 µM each time.

Take `C=C(C)[C@@]12O[C@@]3(c4ccccc4)O[C@@H]1[C@@H]1[C@H](O)[C@@](O)(CO)[C@@H](O)[C@]4(O)C(=O)C(C)=C[C@H]4[C@@]1(O3)[C@H](C)[C@H]2OC(=O)c1ccccc1`: the 50% inhibitory concentration (IC50) in assay [1], in assay [2] and in assay [3] was > 10 µM in each case.

Take `C=C(C)[C@@]12O[C@@]3(/C=C/C=C\CCCCC)O[C@@H]1[C@@H]1[C@@H]4O[C@]4(CO)[C@@H](O)[C@]4(O)C(=O)C(C)=C[C@H]4[C@@]1(O3)[C@H](C)[C@H]2OC(C)=O`: the IC50 in assay [1], in assay [2] and in assay [3] was > 10 µM in each case.

Regarding `C=C(C)[C@@]1(O)[C@H](OC(=O)/C=C/C=C/CCCCC)[C@@H]2[C@H](O)[C@@](O)(CO)[C@@H](O)[C@]3(O)C(=O)C(C)=C[C@H]3[C@@]2(O)[C@H](C)[C@H]1OC(C)=O`, the half-inhibitory concentration (IC50) in assay [1], in assay [2] and in assay [3] was > 10 µM throughout.

For the compound `C=C(C)[C@@]12O[C@@]3(/C=C/C=C/C=C\CCC)O[C@@H]1[C@@H]1[C@@H]4O[C@]4(CO)[C@@H](O)[C@]4(O)C(=O)C(C)=C[C@H]4[C@@]1(O3)[C@H](C)[C@H]2OC(C)=O`, the IC50 in assay [1], in assay [2] and in assay [3] was > 10 µM throughout.

As to `C=C(C)[C@@]12O[C@@]3(/C=C/C=C/CCCCC)O[C@@H]1[C@@H]1[C@@H]4O[C@]4(CO)[C@@H](O)[C@]4(O)C(=O)C(C)=C[C@H]4[C@@]1(O3)[C@H](C)[C@H]2OC(=O)C(C)C`, the IC50 in assay [1], in assay [2] and in assay [3] was > 10 µM throughout.

`C=C(C)[C@@]1(O)[C@H](OC(=O)/C=C/C=C/CCCCC)[C@@H]2[C@@H]3O[C@]3(CO)[C@@H](O)[C@]3(O)C(=O)C(C)=C[C@H]3[C@@]2(O)[C@H](C)[C@H]1OC(C)=O`: the IC50 in assay [1], in assay [2] and in assay [3] was > 10 µM throughout.

Take `C=C(C)[C@@]12O[C@@]3(/C=C/C=C/CCCCC)O[C@@H]1[C@@H]1[C@@H]4O[C@]4(CO)[C@@H](O)[C@]4(O)C(=O)C(C)=C[C@H]4[C@@]1(O3)[C@H](C)[C@H]2OC(=O)CC`: the concentration for half-maximal inhibition (IC50) in assay [1], in assay [2] and in assay [3] was > 10 µM throughout.

For `C=C(C)[C@@]12O[C@@]3(/C=C/C=C\CCCCC)O[C@@H]1[C@@H]1[C@@H]4O[C@]4(CO)[C@@H](O)[C@]4(O)C(=O)C(C)=C[C@H]4[C@@]1(O3)[C@H](C)[C@H]2OC(=O)c1ccccc1`, the IC50 in assay [1] is > 10 µM; in assay [2], 8.5 µM.

As for `C=C(C)[C@@]1(O)[C@H](OC(=O)/C=C/C=C/CCCCC)[C@@H]2[C@@H]3O[C@]3(CO)[C@@H](O)[C@]3(O)C(=O)C(C)=C[C@H]3[C@@]2(O)[C@H](C)[C@H]1OC(=O)c1ccccc1` [YUANHUAOATE E], the 50% inhibitory concentration (IC50) in assay [1], in assay [2] and in assay [3] was > 10 µM each time.

Turning to `C=C(C)[C@@]12O[C@@]3(/C=C/C=C/CCCCC)O[C@@H]1[C@@H]1[C@@H]4O[C@]4(CO)[C@@H](O)[C@]4(O)C(=O)C(C)=C[C@H]4[C@@]1(O3)[C@H](C)[C@H]2OC(=O)c1ccccc1` [GNIDILATIDIN], the half-maximal inhibitory concentration (IC50) in assay [1] was 6.5 µM; in assay [2], 4.3 µM.

Turning to `C=C(C)[C@@]12O[C@@]3(/C=C/C=C/CCCCC)O[C@@H]1[C@@H]1[C@@H]4O[C@]4(CO)[C@@H](O)[C@]4(O)C(=O)C(C)=C[C@H]4[C@@]1(O3)[C@H](C)[C@H]2O`, the IC50 in assay [1], in assay [2] and in assay [3] was > 10 µM each time.

Turning to `C=C(C)[C@@]1(O)[C@H](OC(=O)/C=C/C=C/CCCCC)[C@@H]2[C@H](O)[C@@](O)(CO)[C@@H](O)[C@]3(O)C(=O)C(C)=C[C@H]3[C@@]2(O)[C@H](C)[C@H]1OC(=O)c1ccccc1`, the IC50 in assay [1], in assay [2] and in assay [3] was > 10 µM in each case.

On to `C=C(C)[C@@]12O[C@@]3(/C=C/C=C/C=C\CCC)O[C@@H]1[C@@H]1[C@@H]4O[C@]4(CO)[C@@H](O)[C@]4(O)C(=O)C(C)=C[C@H]4[C@@]1(O3)[C@H](C)[C@H]2OC(=O)c1ccccc1`, for which the IC50 in assay [1], in assay [2] and in assay [3] was > 10 µM in each case.

Regarding `C=C(C)[C@@]12O[C@@]3(c4ccccc4)O[C@@H]1[C@@H]1[C@@H]4O[C@]4(CO)[C@@H](O)[C@]4(O)C(=O)C(C)=C[C@H]4[C@@]1(O3)[C@H](C)[C@H]2OC(=O)C(C)C`, the half-inhibitory concentration (IC50) in assay [1], in assay [2] and in assay [3] was > 10 µM in each case.

`C=C(C)[C@@]12O[C@@]3(c4ccccc4)O[C@@H]1[C@@H]1[C@@H]4O[C@]4(CO)[C@@H](O)[C@]4(O)C(=O)C(C)=C[C@H]4[C@@]1(O3)[C@H](C)[C@H]2OC(=O)CCC`: the IC50 in assay [1], in assay [2] and in assay [3] was > 10 µM throughout.
